# Test system: medulloblastoma D384 cells
# Experiment: exoDNA yield in microvesicles after inhibition of DNA replication with L-mimosine
# Assay type: cell-based, human
# Details: D384 cells treated with L-mimosine (200, 400 and 600 μM), microvesicles isolated from medium after 48 hrs, ssDNA yield compared to mock treated cells
# Procedure: D384 cells were seeded in 6-well plates and treated with increasing dosages of L-mimosine (200, 400 and 600 μM) or mock treated. Microvesicles were isolated from the medium after 48 hrs and ssDNA was extracted using the Qiagen PCR purification kit. Single-stranded DNA yields were quantified using the Bioanalyzer and the yields were compared to mock treated cells (normalized to 1.0).
# We used L-mimosine to inhibit DNA replication and examined whether the inhibition affected the yield of exoDNA. If the exoDNA yield is decreased after inhibition, it is very likely that exoDNA may contain fragments of genomic DNA.
# Specifically, D384 cells were plated on 6-well plates (2×10^6 cells/well) and treated with increasing amounts (200, 400 and 600 μM) of L-mimosine (Sigma-Aldrich, St. Louis, Mo.) which is an inhibitor of DNA replication. The drug was added at one time point and 48 hrs after, the media was collected and processed for the isolation of microvesicles. Cell viability was assessed by cell count using the Countess Automated Cell Counter (Invitogen). SsDNA yields are normalized to one.
structure (smiles),measurement,value
N[C@@H](Cn1ccc(=O)c(O)c1)C(=O)O [L-mimosine],decrease of exoDNA yield in microvesicles,about 50%
